Data: BindingDB's records for patent US10626094 (Sanford Burnham Prebys Medical Discovery Institute, 2020)

Each molecule was assayed against T1, Low molecular weight phosphotyrosine protein phosphatase (Homo sapiens, UniProt P24666) (assay: LMPTP Primary Screening Protocol).
T1 sequence (P24666 whole entry): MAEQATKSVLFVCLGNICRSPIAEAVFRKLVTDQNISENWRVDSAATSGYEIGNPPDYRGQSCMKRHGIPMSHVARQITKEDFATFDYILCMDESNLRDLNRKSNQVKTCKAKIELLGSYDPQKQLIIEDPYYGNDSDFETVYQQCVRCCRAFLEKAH
Experimental: 1. Prepare Reagents as described in section F. Recipe.2. Using LabCyte Echo, transfer 60 nL from 2 mM test compound source plate into assay plate Col. 5-48 (final concentration of test compounds is 20 μM). 60 nL of DMSO should be transferred to col. 1-4 for positive and negative control wells.3. Spin plates at 1000 rpm for 1 minute in centrifuge.4. Using the Beckman Coulter Bioraptr, add 3 μL/well of control buffer to columns 1 and 2.5. Using the Bioraptr, add 3 μL/well of enzyme solution to col. […] Using the Bioraptr, add 3 μL/well of substrate solution to col. 1-48.7. Spin plates at 1000 rpm for 1 minute in centrifuge.8. Incubate plates in the dark at room temperature for 50 minutes.9. Read plates on PerkinElmer Viewlux using a FI protocol.

Row | Structure (SMILES) | IC50 [µM]
1 | c1ccc(-c2cc(NCCN3CCOCC3)c3ccccc3n2)cc1 [(2-morpholin-4-ylethyl)(2-phenyl(4-quinolyl))amine] | 0.802 to 5
2 | O=C(c1ccc(-c2cc(NCCCC3CCCNC3)c3ccccc3n2)cc1)N1CCCC1 (stereo not given) [4-{4-[(3-piperidylpropyl)amino](2-quinolyl)}phenyl pyrrolidinyl ketone] | 0.802 to 5
3 | CC(C)NC(=O)c1ccc(-c2cc(NCCCC3CCCNC3)c3ccccc3n2)cc1 (stereo not given) [N-(methylethyl)(4-{4-[(3-piperidylpropyl)amino](2-quinolyl)}phenyl)carboxamide] | 0.802 to 5
4 | Clc1cccc(Cl)c1-c1cc(NCCCC2CCCNC2)c2ccccc2n1 (stereo not given) [US11220486, Compound I100] | > 5
5 | CCN1CCN(Cc2ccc(NC3CC(c4ccc(OC)cc4)Nc4ccccc43)cc2)CC1 (stereo not given) [US10626094, Example I206] | 0.802 to 5
